The text below walks through data of ChEMBL document CHEMBL4483862, “Open-source discovery of chemical leads for next-generation chemoprotective antimalarials” (2018).

The structures appear in SMILES notation. pIC50: −log10 of the molar value. A value given as a limit tells only on which side of the number the result lay.

The assay deals with Plasmodium berghei. Description: Luciferase/luciferin-expressing antifolate-resistant parasites were used to infect a culture of HepG2 cells that were pre-incubated with compounds. Infected hepatocytes emit light due to the luciferase reaction. Assay results are presented as the percent inhibition of light emission compared to control. […]. The class given is functional. To be noted: sporozoite; for IC90: read-out: LUCIFERASE INFECTION ASSAY - IC90.

Where [1] appears, read: read-out: LUCIFERASE INFECTION ASSAY - IC50.

`CCOc1cccc(-c2cn3c(-c4ccc(CO)cc4)cnc3cn2)c1`: the concentration for an effect of 90% (IC90) (commonly the concentration needed for an effect of 90%) was 0.828 µM. In addition, the pIC50 (commonly the negative decadic logarithm of the IC50, by convention in mol/L) (HEPG2TOX_HILL_SLOPE 0.91, HEPG2TOX_R_SQUARED 0.879, PBLUC_HILL_SLOPE 2.96, PBLUC_R_SQUARED 0.698, read-out: LUCIFERASE INFECTION ASSAY - IC50) is 6.40.
Consider `O=C(CN1CCN(C(=O)CCc2cnn(-c3ccccc3)c2)CC1)NC1CC1`, for which the IC90 was more than 10 µM. Besides, the pIC50 under setting [1] was less than 5.00.
Taken in the same sequence, the figures for `CN(C)CCNC(=O)c1ccc(-c2cnc3c(Nc4ccc(Oc5ccccc5)cc4)nccn23)cc1` were more than 6.7 µM and less than 5.17.
As for `Cc1ccc(S(=O)(=O)N(Cc2ccccc2Cl)c2ccc(Br)cc2C(=O)c2ccccc2)cc1`, the IC90 was more than 5.95 µM. In addition, the pIC50 (FFLUC_HILL_SLOPE 4.75, FFLUC_R_SQUARED 0.66, PBLUC_HILL_SLOPE 8.83, PBLUC_R_SQUARED 0.156, read-out: LUCIFERASE INFECTION ASSAY - IC50) is 5.27.
With `Cc1nn(Cc2nc3ccccc3s2)c(C)c1S(=O)(=O)N(C)Cc1ccco1`, the IC90 was more than 10 µM. Moreover, the pIC50 under setting [1] is less than 5.00.
As to `COc1cccc(CN2CCN3C=C(C(=O)Nc4ccc(Oc5ccccc5)cc4)OC3=NC2=O)c1`, the 90% effect concentration (IC90) was more than 10 µM. Further, the pIC50 under setting [1] is less than 5.00.
For `CCCNC(=O)C1(C)CCCN(C(=O)c2cccc(OC(C)=O)c2C)C1` (centres undefined) the same measures were more than 9.16 µM and less than 5.04.
On to `CCOCc1c(C(=O)NC2=C(C(=O)OCC)C(CC)=Nc3ccccc3N2)oc2ccccc12`, for which the IC90 is 8.81 µM. Moreover, under “PBLUC_HILL_SLOPE 13.2, PBLUC_R_SQUARED 0.167, read-out: LUCIFERASE INFECTION ASSAY - IC50”, the pIC50 is 5.13.
In the case of `O=C(O)c1c2c(nc3ccccc13)/C(=C/c1ccccc1Cl)CC2`, the IC90 was more than 10 µM. Moreover, for the setting “PBLUC_HILL_SLOPE 0.525, PBLUC_R_SQUARED 0.706, read-out: LUCIFERASE INFECTION ASSAY - IC50”, the pIC50 is 6.24.
As to `CN(C)c1ccc(CNCC2(c3ccnc(-c4cccc(N(C)C)c4)c3)CC2)cc1`, the IC90 was more than 10 µM. In addition, the pIC50 (PBLUC_HILL_SLOPE 3.17, PBLUC_R_SQUARED 0.141, read-out: LUCIFERASE INFECTION ASSAY - IC50) was 5.02.
In the case of `Cc1cc(N(CCC#N)C(=O)Cn2ncc(Cl)c(Cl)c2=O)ccc1Cl`, the concentration for an effect of 90% (IC90) amounted to 5.85 µM. The pIC50 under setting [1] is 5.25.
Taken in the same sequence, the figures for `COc1ccc2cc(/C(C)=N/OC(=O)Nc3cc(Cl)cc(Cl)c3)ccc2c1` were 8.12 µM and 5.39.
Taken in the same sequence, the figures for `Cn1c(N)c(C(=O)COC(=O)c2cc(-c3ccccc3)nc3ccc(Br)cc23)c(=O)n(C)c1=O` were more than 10 µM and less than 5.00.
As to `Cc1ccc(S(=O)(=O)/N=C2\C=C(NS(=O)(=O)c3ccc(C)cc3)C(=O)c3ccccc32)cc1`, the IC90 is more than 10 µM. Moreover, the pIC50 (PBLUC_HILL_SLOPE 2.17, PBLUC_R_SQUARED 0.652, read-out: LUCIFERASE INFECTION ASSAY - IC50) was 5.26.
For the compound `CN(C)c1ccc(-c2cnc3cnc(-c4ccc(CNc5ccccc5)cc4)cn23)cc1`, the IC90 is more than 7.87 µM. For the same compound, the pIC50 (PBLUC_HILL_SLOPE 1.8, PBLUC_R_SQUARED 0.529, read-out: LUCIFERASE INFECTION ASSAY - IC50) was 5.37.
Turning to `CCCN1CCN(C(=O)c2ccc(-c3ccc(C(C)=O)cc3)o2)CC1`, the IC90 is more than 10 µM. Further, under “PBLUC_HILL_SLOPE 0.574, PBLUC_R_SQUARED 0.0124, read-out: LUCIFERASE INFECTION ASSAY - IC50”, the negative logarithm of the IC50 (pIC50) is less than 5.00.
On to `COc1ccc(CCNC(=O)c2c(S)n(-c3ccc(C)cc3)c3cccc[n+]23)cc1`, for which the IC90 is 9.33 µM. For the same compound, the pIC50 (HEPG2TOX_HILL_SLOPE 12.1, HEPG2TOX_R_SQUARED 0.69, PBLUC_HILL_SLOPE 9.57, PBLUC_R_SQUARED 0.712, read-out: LUCIFERASE INFECTION ASSAY - IC50) was 5.13.
Turning to `CN(CCCNC(=O)CSc1nnc(-c2c[nH]c3ccccc23)n1C1CC1)c1ccccc1`, the IC90 is 9.32 µM. Also, for the setting “HEPG2TOX_HILL_SLOPE 3.48, HEPG2TOX_R_SQUARED 0.658, PBLUC_HILL_SLOPE 4.72, PBLUC_R_SQUARED 0.65, read-out: LUCIFERASE INFECTION ASSAY - IC50”, the pIC50 was 5.23.
Consider `O=C(Nc1cc(Cl)ccc1OC(=O)c1ccc(C(F)(F)F)cc1)c1ccc(C(F)(F)F)cc1`, for which the IC90 worked out at 2.9 µM. For the same compound, for the setting “HEPG2TOX_HILL_SLOPE 3.38, HEPG2TOX_R_SQUARED 0.98, PBLUC_HILL_SLOPE 2.51, PBLUC_R_SQUARED 0.591, read-out: LUCIFERASE INFECTION ASSAY - IC50”, the pIC50 is 5.92.
`Cc1cc(CSc2nnc(CN3CCCCC3)n2-c2ccc(F)cc2)on1`: the IC90 was more than 10 µM. The pIC50 under setting [1] was less than 5.00.
With `CCOc1ccccc1NC1=C(Cl)C(=O)c2ccccc2C1=O`, the IC90 was 9.94 µM. The pIC50 (HEPG2TOX_HILL_SLOPE 12.2, HEPG2TOX_R_SQUARED 0.715, PBLUC_HILL_SLOPE 2.84, PBLUC_R_SQUARED 0.486, read-out: LUCIFERASE INFECTION ASSAY - IC50) was 5.34.
For the compound `Cc1cc2oc3c(c2cc1NS(=O)(=O)c1cccs1)CC(C)CC3` (centres undefined), the IC90 was more than 10 µM. Also, the pIC50 under setting [1] is less than 5.00.
With `N#Cc1cc(-c2ccc(Cl)cc2)cnc1OC(=O)c1ccc(Cl)cc1`, the IC90 is more than 8.94 µM. In addition, the pIC50 (HEPG2TOX_HILL_SLOPE 24.3, HEPG2TOX_R_SQUARED 0.913, PBLUC_HILL_SLOPE 3.24, PBLUC_R_SQUARED 0.477, read-out: LUCIFERASE INFECTION ASSAY - IC50) is 5.21.
On to `COc1ccc(CN(Cc2n/c(=N\c3ccccc3C)nc(N)[nH]2)Cc2n/c(=N\c3ccccc3C)nc(N)[nH]2)cc1OC`, for which the IC90 came to 4.51 µM. For the same compound, where the note is “PBLUC_HILL_SLOPE 2.79, 12.2, PBLUC_R_SQUARED 0.127, 0.675, read-out: LUCIFERASE INFECTION ASSAY - IC50”, the pIC50 is 5.56.
Regarding `N#CC(C#N)=C/C=C(/Sc1ccc(F)c(Cl)c1)c1ccc(Cl)cc1`, the IC90 was 7.65 µM. The pIC50 (FFLUC_HILL_SLOPE 3.34, FFLUC_R_SQUARED 0.746, HEPG2TOX_HILL_SLOPE 5.06, HEPG2TOX_R_SQUARED 0.992, PBLUC_HILL_SLOPE 1.74, PBLUC_R_SQUARED 0.619, read-out: LUCIFERASE INFECTION ASSAY - IC50) is 5.66.
With `COc1cccc(CN(C)S(=O)(=O)NC2CCC(C)CC2)c1` (centres undefined), the IC90 is more than 10 µM. Moreover, the pIC50 (HEPG2TOX_HILL_SLOPE 1.57, HEPG2TOX_R_SQUARED 0.723, PBLUC_HILL_SLOPE 2.26, PBLUC_R_SQUARED 0.44, read-out: LUCIFERASE INFECTION ASSAY - IC50) is 5.14.
With `CC(Sc1nc2ccccc2c(=O)n1-c1ccccc1F)c1nnc(-c2cccs2)o1` (centres undefined), the IC90 is more than 10 µM. In addition, the pIC50 (HEPG2TOX_HILL_SLOPE 12.8, HEPG2TOX_R_SQUARED 0.22, PBLUC_HILL_SLOPE 16.4, PBLUC_R_SQUARED 0.485, read-out: LUCIFERASE INFECTION ASSAY - IC50) was 5.05.
On to `Cc1cc(NC(=O)CCc2c(-c3ccc(F)cc3)[nH]c3ccc(F)cc23)no1`, for which the IC90 was more than 10 µM. Moreover, the pIC50 under setting [1] is less than 5.00.
As to `c1ccc(NCc2ccc(-c3cn4c(-c5cccnc5)cnc4cn3)cc2)cc1`, the IC90 was 7.31 µM. Besides, for the setting “PBLUC_HILL_SLOPE 2.17, PBLUC_R_SQUARED 0.86, read-out: LUCIFERASE INFECTION ASSAY - IC50”, the pIC50 was 5.58.
On to `O=C(Nc1ccc(Oc2ccc(OC(F)(F)F)cc2)cc1)Nc1ccc(OC(F)(F)F)cc1`, for which the IC90 is more than 6.99 µM. Further, under setting [1], the pIC50 is less than 5.16.
As for `CCN(CC)c1ccc(/C=N/NC(=S)NCC2CCCO2)c(O)c1` (centres undefined), the IC90 is more than 10 µM. Also, under “HEPG2TOX_HILL_SLOPE 16.0, 27.0, HEPG2TOX_R_SQUARED 0.190, 0.836, PBLUC_HILL_SLOPE 15.6, PBLUC_R_SQUARED 0.223, read-out: LUCIFERASE INFECTION ASSAY - IC50”, the negative logarithm of the IC50 (pIC50) was 5.05.
Turning to `CCCCCCCOc1ccc(C(=O)CCC(=O)O)cc1`, the IC90 is more than 11.3 µM. Under setting [1], the pIC50 is less than 4.95.
Consider `NC(=O)c1ccsc1NC(=O)Cc1ccc(-c2ccccc2)cc1`, for which the IC90 was 3.7 µM. The pIC50 (PBLUC_HILL_SLOPE 3.68, PBLUC_R_SQUARED 0.581, read-out: LUCIFERASE INFECTION ASSAY - IC50) is 5.69.
Consider `Cc1onc(-c2c(Cl)cccc2Cl)c1NC(=O)Nc1ccc(Oc2ccc(C(C)(C)C)cc2)nc1`, for which the IC90 was more than 6.45 µM. Besides, where the note is “FFLUC_HILL_SLOPE 11.2, FFLUC_R_SQUARED 0.206, PBLUC_HILL_SLOPE 0.638, PBLUC_R_SQUARED 0.443, read-out: LUCIFERASE INFECTION ASSAY - IC50”, the pIC50 is 5.57.
For `Cc1nc(NC(=O)c2cnn(C)c2)sc1Cc1ccccc1Cl`, the IC90 was determined as 3.3 µM. Also, for the setting “HEPG2TOX_HILL_SLOPE 2.29, HEPG2TOX_R_SQUARED 0.901, PBLUC_HILL_SLOPE 11.8, PBLUC_R_SQUARED 0.668, read-out: LUCIFERASE INFECTION ASSAY - IC50”, the pIC50 was 5.56.
For the compound `COc1cc(NC(=O)Nc2cc(Cl)cc(Cl)c2)cc(C(F)(F)F)c1`, the IC90 was 0.748 µM. The pIC50 (HEPG2TOX_HILL_SLOPE 3.42, HEPG2TOX_R_SQUARED 0.986, PBLUC_HILL_SLOPE 0.84, PBLUC_R_SQUARED 0.7, read-out: LUCIFERASE INFECTION ASSAY - IC50) was 7.26.
For `COc1cccc(CN2CCN3C=C(C(=O)Nc4ccc(OCc5ccccc5)cc4)OC3=NC2=O)c1`, the IC90 is more than 10 µM. Where the note is “HEPG2TOX_HILL_SLOPE 3.22, HEPG2TOX_R_SQUARED 0.229, read-out: LUCIFERASE INFECTION ASSAY - IC50”, the pIC50 was less than 5.00.
